# Data: patent US20040234509A1, “Replacing liver cells with bone marrow-derived cells for treating disease and expressing therapeutic genes” (priority 2002, published 2004)
# Tested on: Kupffer cells
# Test: Kupffer cell replacement in mice: gadolinium chloride followed by GFP bone marrow stem cells
# Assay type: in vivo, C57BL/6 mice
# Method: Bone marrow derived from C57BL/6-TgN(ACTbEGFP)10sb mice was injected into the tail vein of recipient C57BL/6 mice. Recipient mice were separated into two groups. One group received saline injection the other received gadolinium chloride (20-60 mg/kg i.v.: ICN Biomedicals, Aurora, Ohio) 24 hours before they received the bone marrow cells obtained from C57BL/6-TgN (ACTbEGFP) 10sb mice. The amount of bone marrow cells administered varied between 2×10^6 to 100×10^6 cells/animal. Mice were sacrificed 2 weeks after the stem cells were injected and livers were removed, fixed and prepared for fluorescent microscopy.
# C57BL/6 mice were injected with 60 mg/Kg of gadolinium chloride 24 hours before injecting stem cells intravenously.
# [1] = 60 mg/Kg gadolinium chloride 24 hours before stem cells i.v., two weeks after injection
compound,measurement,setting,value
[Cl][Gd]([Cl])[Cl] [gadolinium chloride],"GFP labeled Kupffer cells in liver, 10×10^6 stem cells vs 2×10^6 stem cells",[1],many more GFP labeled Kupffer cells
same,"number of GFP-labeled Kupffer cells, 100×10^6 stem cells vs 10×10^6 stem cells",[1],did not significantly increase the number of GFP-labeled Kupffer cells
same,survival / evidence of toxicity,"C57BL/6 mice, gadolinium chloride 20-60 mg/kg i.v. plus 2×10^6 to 100×10^6 bone marrow cells/animal, 2 weeks",All mice survived and none showed evidence of any toxicity
same,GFP-fluorescent Kupffer cells in liver (fluorescent microscopy),"gadolinium chloride 20-60 mg/kg i.v. 24 hours before bone marrow cells from TgN(ACTbEGFP)1Osb mice, livers 2 weeks after stem cells, vs saline control",contained many GFP-fluorescent Kupffer cells
